Assay results reported in PubChem BioAssay (NCI).
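Cultured in 96-well plates, cells were exposed to test compound for 48 hours across five concentrations. TGI denotes the concentration required for complete inhibition of growth.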

Assays:
Experiment in all cases: NCI anticancer screen, dose series, 48 h
[1] = test system: MOLT-4 leukemia
[2] = test system: EKVX NSCLC
[3] = test system: IGROV1 ovarian
[4] = test system: SNB-19 CNS
[5] = test system: HOP-62 NSCLC
[6] = test system: HT29 colon
[7] = test system: NCI/ADR-RES ovarian
[8] = test system: SF-295 CNS
[9] = test system: MDA-N
[10] = test system: T-47D breast
[11] = test system: MALME-3M melanoma
[12] = test system: SF-539 CNS
[13] = test system: 786-0 renal
[14] = test system: DU-145 prostate
[15] = test system: NCI-H460 lung
[16] = test system: UO-31 renal
[17] = test system: SW-620 colon
[18] = test system: HCT-116 colon
[19] = test system: ACHN renal
[20] = test system: CCRF-CEM leukemia
[21] = test system: LOX IMVI melanoma
[22] = test system: SNB-75 CNS
[23] = test system: RPMI-8226 leukemia
[24] = test system: OVCAR-3 ovarian
[25] = test system: SK-OV-3 ovarian
[26] = test system: OVCAR-8 ovarian
[27] = test system: MDA-MB-435
[28] = test system: M14 melanoma
[29] = test system: HS 578T breast
[30] = test system: MCF7 breast
[31] = test system: BT-549 breast
[32] = test system: HCT-15 colon
[33] = test system: UACC-62 melanoma
[34] = test system: MDA-MB-231 breast
[35] = test system: OVCAR-4 ovarian
[36] = test system: U251 CNS
[37] = test system: HCC-2998 colon
[38] = test system: TK-10 renal
[39] = test system: PC-3 prostate
[40] = test system: OVCAR-5 ovarian
[41] = test system: A549 NSCLC
[42] = test system: RXF 393 renal
[43] = test system: NCI-H23 lung
[44] = test system: SK-MEL-2 melanoma
[45] = test system: SF-268 CNS
[46] = test system: SN12C renal
[47] = test system: SK-MEL-28 melanoma
[48] = test system: UACC-257 melanoma
[49] = test system: COLO 205 colon
[50] = test system: HOP-92 NSCLC
[51] = test system: NCI-H522 lung
[52] = test system: KM12 colon
[53] = test system: A498 renal
[54] = test system: CAKI-1 renal
[55] = test system: NCI-H226 lung
[56] = test system: SR leukemia
[57] = test system: K-562 leukemia

CN(C)c1ccc(/C=C2\N=C(NNc3ccccc3)NC2=O)cc1
TGI [1]: > 100 µM
TGI [2]: 68.1 µM
TGI [3]: 80.6 µM
TGI [4]: > 100 µM
TGI [5]: > 100 µM
TGI [6]: > 100 µM
TGI [7]: > 100 µM
TGI [8]: 83.4 µM
TGI [9]: > 100 µM
TGI [10]: 38.8 µM
TGI [11]: > 100 µM
TGI [12]: 43.3 µM
TGI [13]: 50.2 µM
TGI [14]: > 100 µM
TGI [15]: 52.7 µM
TGI [16]: > 100 µM
TGI [17]: 82.3 µM
TGI [18]: > 100 µM
TGI [19]: 61.9 µM
TGI [20]: > 100 µM
TGI [21]: 92.4 µM
TGI [22]: 78.9 µM
TGI [23]: 40.1 µM
TGI [24]: 35 µM
TGI [25]: > 100 µM
TGI [26]: > 100 µM
TGI [27]: 59.1 µM
TGI [28]: > 100 µM
TGI [29]: > 100 µM
TGI [30]: 41.9 µM
TGI [31]: 83.2 µM
TGI [32]: > 100 µM
TGI [33]: > 100 µM
TGI [34]: 40.1 µM
TGI [35]: > 100 µM
TGI [36]: 27.3 µM
TGI [37]: 30.9 µM
TGI [38]: 67.2 µM
TGI [39]: 29.3 µM
TGI [40]: > 100 µM
TGI [41]: > 100 µM
TGI [42]: 78.9 µM
TGI [43]: 65.3 µM
TGI [44]: 44 µM
TGI [45]: > 100 µM
TGI [46]: 44.6 µM
TGI [47]: 71.4 µM
TGI [48]: 38.5 µM
TGI [49]: 29 µM
TGI [50]: 51.3 µM
TGI [51]: 57.1 µM
TGI [52]: 32.6 µM
TGI [53]: 42.1 µM
TGI [54]: > 100 µM

CCN1CCC(O)(c2ccc(Oc3ccc(F)cc3)cc2)C(C(=O)c2ccc(Oc3ccc(F)cc3)cc2)C1 (configuration not stated)
TGI [1]: 41.3 µM
TGI [2]: 31.8 µM
TGI [3]: 24.1 µM
TGI [4]: 29.6 µM
TGI [5]: 30.1 µM
TGI [6]: 23.6 µM
TGI [7]: 30.1 µM
TGI [8]: 29.3 µM
TGI [9]: 30.6 µM
TGI [10]: 30.9 µM
TGI [11]: 31 µM
TGI [12]: 33.2 µM
TGI [13]: 26.4 µM
TGI [55]: 29.5 µM
TGI [14]: 24.7 µM
TGI [17]: 30.3 µM
TGI [18]: 27.4 µM
TGI [19]: 26.8 µM
TGI [56]: 6.5 µM
TGI [20]: 28.1 µM
TGI [21]: 25.9 µM
TGI [22]: 30.3 µM
TGI [23]: 8.03 µM
TGI [24]: 28.6 µM
TGI [25]: 32.2 µM
TGI [26]: 30.7 µM
TGI [27]: 30.8 µM
TGI [28]: 30.9 µM
TGI [29]: 38.4 µM
TGI [30]: 26 µM
TGI [31]: 29.1 µM
TGI [32]: 23.7 µM
TGI [33]: 28 µM
TGI [34]: 26.6 µM
TGI [57]: > 100 µM
TGI [35]: 29 µM
TGI [36]: 30.1 µM
TGI [37]: 23.6 µM
TGI [38]: 23.5 µM
TGI [39]: 26.4 µM
TGI [40]: 28.5 µM
TGI [41]: 29.5 µM
TGI [42]: 25.8 µM
TGI [43]: 28 µM
TGI [44]: 31.6 µM
TGI [45]: 34.9 µM
TGI [46]: 27.5 µM
TGI [47]: 30.5 µM
TGI [48]: 29.8 µM
TGI [49]: 33.5 µM
TGI [50]: 24.4 µM
TGI [52]: 18.3 µM
TGI [54]: 25.7 µM
